Measurements reported in the Deep4Chem optical property database.
“And” between values parts separate entries of the source, which are not always exact repeats. Equal entries are not always repeated. Blank lines part the entries; values can stand above or below the compound they belong to.

Assay: photoluminescence quantum yield (fraction); solvent given as SMILES

photoluminescence quantum yield (in C1CCOC1): 0.79
photoluminescence quantum yield (in CC#N): 0.76
photoluminescence quantum yield (in CCO): 0.77
photoluminescence quantum yield (in CS(C)=O): 0.78
photoluminescence quantum yield (in ClCCl): 0.76
Structure (SMILES): c1ccc2c(c1)c1ccccc1c1[nH]c(-c3ccc(-c4nc5c6ccccc6c6ccccc6c5[nH]4)cc3)nc21

photoluminescence quantum yield (in CO): 0.023
photoluminescence quantum yield (in ClC(Cl)Cl): 0.02
Structure (SMILES): Cc1nc2c(ccc3c2sc(/C=C/c2ccc(N(CCO)CCO)cc2)[n+]3C)s1

photoluminescence quantum yield (in CN(C)C=O): 0.197
photoluminescence quantum yield (in CS(C)=O): 0.006
Structure (SMILES): C=CCNS(=O)(=O)c1ccc2c(c1)C(=O)/C(=C1\Sc3ccc(S(=O)(=O)NCC=C)cc3C1=O)S2

photoluminescence quantum yield (in CCO): 0.84
Structure (SMILES): Cc1c(COC(=O)Cc2cccc3ccccc23)n2c(OCC(=O)Cc3cccc4ccccc34)c(C)c(=O)n2c1=O

photoluminescence quantum yield (in CO): 0.18
photoluminescence quantum yield (in CS(C)=O): 0.37
photoluminescence quantum yield (in O): 0.01
Structure (SMILES): CCCN1/C(=C/C=C(/C=C/C2=[N+](CCC)c3ccccc3C2(C)C)c2ccc3ccccc3n2)C(C)(C)c2ccccc21

photoluminescence quantum yield (in ClCCl): 0.32
Structure (SMILES): C(=C\c1cccc2ccccc12)/c1ncc(-c2ccccc2)o1

photoluminescence quantum yield (in ClC(Cl)Cl): 0.021
Structure (SMILES): CCCCCCN1C(=O)c2cccc3cc(/N=C\c4ccc5c(c4)c4ccccc4n5CC)cc(c23)C1=O

photoluminescence quantum yield (in ClCCl): 0.018
Structure (SMILES): COc1ccc(C(=O)c2c(C)c3ccc4cccc5c6cccc7ccc2c(c76)c3c45)cc1

photoluminescence quantum yield (in CC1CCCCC1): 0.49
photoluminescence quantum yield (in CC#N): 0.46
photoluminescence quantum yield (in CO): 0.48
Structure (SMILES): COC(=O)C(NC(=O)OC(C)(C)C)c1ccc2oc(-c3ccc(F)cc3)nc2c1 (stereo not drawn)

photoluminescence quantum yield (in ClCCl): 1
Structure (SMILES): C1=C(c2ccccc2)S[C@]23C1=C(c1ccccc1)[C@H](c1ccccc12)c1ccccc13

photoluminescence quantum yield (in ClCCl): 0.047
Structure (SMILES): CCn1c2ccc(-c3cccs3)cc2c2cc(-c3cccs3)ccc21

photoluminescence quantum yield (in c1ccccc1): 0.084
Structure (SMILES): Cc1nc2c(ccc3ccc(N(C)C)cc32)oc1=O

photoluminescence quantum yield (in CC1CCCO1): 0.35
Structure (SMILES): O=c1cc2cc(O)c3cccc4ccc(o1)c2c43

photoluminescence quantum yield (in C1COCCO1): 0.22
Structure (SMILES): CCC12C(=C3C(=C4c5ccccc5S(=O)(=O)C41CC)C(F)(F)C(F)(F)C3(F)F)c1ccccc1S2(=O)=O (stereo not drawn)

photoluminescence quantum yield (in C1COCCO1): 0.159
Structure (SMILES): COC(=O)c1ccc(/C=C2\N=C(c3ccccc3)NC2=O)cc1

photoluminescence quantum yield (in CC#N): 0.45
Structure (SMILES): CCOC(=O)c1c2c3c(ccc(Cl)c3c3cc4c(cc13)[Si](C)(C)O[Si]4(C)C)N(C)C2=O

photoluminescence quantum yield (in CS(C)=O): 0.07
Structure (SMILES): CN1/C(=C/C=C/C2=[N+](C)c3ccccc3C2(C)C)Sc2ccccc21

photoluminescence quantum yield (in C1CCCCC1): 0.88
Structure (SMILES): C[Si](C)(C)C#Cc1ccc2c3cccc4cccc(c5cccc1c52)c43

photoluminescence quantum yield (in C1CCOC1): 0.52
Structure (SMILES): COc1cc2c(cc1-c1ccc(F)cc1)Cc1c3c(c4c(c1-2)-c1cc(OC)c(-c2ccc(F)cc2)cc1C4)C(=O)N(CCC(C)C)C3=O

photoluminescence quantum yield (in ClC(Cl)Cl): 0.41
Structure (SMILES): Ic1ccc(C2=C3C=CC4=[N+]3[B-]3(Oc5ccccc54)Oc4ccccc4-c4ccc2n43)cc1 (stereo not drawn)

photoluminescence quantum yield (in C1CCOC1): 0.61
photoluminescence quantum yield (in CN(C)C=O): 0.19
Structure (SMILES): O=C(O)c1ccc(C(=O)O)c2cc3ccccc3cc12

photoluminescence quantum yield (in C1CCOC1): 0.016
Structure (SMILES): Cc1cc(C2=C(c3cc(C)sc3C)S(=O)(=O)c3ccccc32)c(C)s1

photoluminescence quantum yield (in C1CCOC1): 0.32
Structure (SMILES): CCC1(CC)c2cc(Br)ccc2-c2c1c1c(c3c2C(CC)(CC)c2cc(-c4cccs4)ccc2-3)C(CC)(CC)c2cc(Br)ccc2-1

photoluminescence quantum yield (in C1CCCCC1): 0.12
Structure (SMILES): CCCCC#Cc1cccc2cc(CCCC)c3cc(-c4cc[b-]5c(c4)c(CCCC)cc4cccc(C#CCCCC)[n+]54)cc[b-]3[n+]12

photoluminescence quantum yield (in C1COCCO1): 0.62
photoluminescence quantum yield (in CC#N): 0.43
photoluminescence quantum yield (in CCCCOCCCC): 0.41
photoluminescence quantum yield (in CCOC(C)=O): 0.3
Structure (SMILES): c1ccc(Nc2nc(Nc3ccccc3)nc(Nc3ccc4cc5ccccc5cc4c3)n2)cc1

Continued, compound first:

Structure (SMILES): C=Cc1cc2cc3c(cc2oc1=O)OCO3
photoluminescence quantum yield (in CC#N): 0.65

Structure (SMILES): FC(F)(F)C(F)(F)C(F)(F)C(F)(F)C(F)(F)C(F)(F)C(F)(F)C(F)(F)CCOc1nnc(Cl)nn1
photoluminescence quantum yield (in ClCCl): 0.44
photoluminescence quantum yield (in OCC(F)(F)F): 0.28

Structure (SMILES): O=Cc1ccc(C2=C3C=c4c(oc5ccccc45)=[N+]3[B-](F)(F)n3c2cc2c4ccccc4oc23)cc1
photoluminescence quantum yield (in C1CCCCC1): 0.63
photoluminescence quantum yield (in C1CCOC1): 0.42
photoluminescence quantum yield (in CC#N): 0.37
photoluminescence quantum yield (in CCOC(C)=O): 0.39
photoluminescence quantum yield (in CN(C)C=O): 0.45
photoluminescence quantum yield (in CO): 0.44
photoluminescence quantum yield (in Cc1ccccc1): 0.53
photoluminescence quantum yield (in ClCCl): 0.5

Structure (SMILES): C/C=C/c1ccc(OC)c(OC)c1
photoluminescence quantum yield (in CC#N): 0.28
photoluminescence quantum yield (in CCCCCC): 0.35

Structure (SMILES): c1cc2ccc3ccc4cc3c2cc1c1ccc2ccc3ccc(cc3c2c1)c1ccc2ccc3ccc4cc3c2c1
photoluminescence quantum yield (in Cc1ccccc1): 0.75

Structure (SMILES): [O-][n+]1c(/C=C/c2ccc(/C=C/c3ccccc3)cc2)nc(N2CCOCC2)c2c1CCCC2
photoluminescence quantum yield (in ClCCl): 0.04

Structure (SMILES): COc1ccc(-c2c(OC)ccc3nnn(C[C@H](N)C(=O)O)c23)cc1
photoluminescence quantum yield (in CO): 0.09

Structure (SMILES): NNC(=O)c1ccc(/C=C/c2ccc(C(=O)NN)cc2)cc1
photoluminescence quantum yield (in CN(C)C=O): 0.2

Structure (SMILES): c1cc2ccc3ccc(OP4(Oc5ccc6ccc7cccc8ccc5c6c78)=NP(Oc5ccc6ccc7cccc8ccc5c6c78)(Oc5ccc6ccc7cccc8ccc5c6c78)=NP(Oc5ccc6ccc7cccc8ccc5c6c78)(Oc5ccc6ccc7cccc8ccc5c6c78)=N4)c4ccc(c1)c2c34
photoluminescence quantum yield (in ClCCl): 0.92

Structure (SMILES): Cc1cc(-c2nnc(-c3ccccc3)o2)ccc1-n1c2ccccc2c2ccccc21
photoluminescence quantum yield (in Cc1ccccc1): 0.56

Structure (SMILES): N#Cc1c(-n2c3ccccc3c3ccccc32)c(C#N)c(-n2c3ccccc3c3ccccc32)c(-n2c3ccccc3c3ccccc32)c1-n1c2ccccc2c2ccccc21
photoluminescence quantum yield (in Cc1ccccc1): 0.938 and 0.88
photoluminescence quantum yield (in c1ccc2c(c1)c1ccccc1n2-c1ccc(-c2ccc(-n3c4ccccc4c4ccccc43)cc2)cc1): 0.83

Structure (SMILES): COc1ccc(C#Cc2nc(C#Cc3ccc(OC)cc3)c(C#Cc3ccc(OC)cc3)c(C#Cc3ccc(OC)cc3)c2C#Cc2ccc(OC)cc2)cc1
photoluminescence quantum yield (in ClCCl): 0.81

Structure (SMILES): CCCCCCCCCCCCOc1ccc(C#Cc2ccc(C#Cc3ccc(OCCCCCCCCCCCC)c(OCCCCCCCCCCCC)c3)c3nc4c5ccccc5c5ccccc5c4nc23)cc1OCCCCCCCCCCCC
photoluminescence quantum yield (in C1CCOC1): 0.23
photoluminescence quantum yield (in Cc1ccccc1): 0.19
photoluminescence quantum yield (in ClCCl): 0.26

Structure (SMILES): COc1ccc(C2=C(c3ccc(OC)cc3)C(c3ccccc3)=[N+]3C2=Nc2c(-c4ccc(OC)cc4)c(-c4ccc(OC)cc4)c(-c4ccccc4)n2[B-]3(F)F)cc1
photoluminescence quantum yield (in Cc1ccccc1): 0.01

Structure (SMILES): N#Cc1ccc(-c2ccc3c(c2)c2cc(-c4ccc(C#N)cc4)ccc2c2c3nc(-c3ccc(N(c4ccccc4)c4ccccc4)cc3)n2-c2ccccc2)cc1
photoluminescence quantum yield (in C1CCOC1): 0.42
photoluminescence quantum yield (in CC#N): 0.23
photoluminescence quantum yield (in CCCCCC): 0.9
photoluminescence quantum yield (in CCOCC): 0.59

Structure (SMILES): c1ccc(-c2nnc(-c3ccc(-n4c5ccccc5c5ccccc54)cc3)o2)cc1
photoluminescence quantum yield (in Cc1ccccc1): 0.57

Structure (SMILES): O=C1O[B-]2(OC1=O)OC(c1ccc3ccccc3c1)=CC(c1ccc3ccccc3c1)=[O+]2
photoluminescence quantum yield (in CC#N): 0.3
photoluminescence quantum yield (in ClC(Cl)(Cl)Cl): 0.8

Structure (SMILES): CCOC(=O)CSc1nc(C)c(C)c(C#N)c1C#N
photoluminescence quantum yield (in c1ccccc1): 0.035

Structure (SMILES): CC1=[N+]2C(=C(c3ccccc3)c3ccc(/C=C/c4ccc(C(=C(c5ccccc5)c5ccccc5)c5ccccc5)cc4)n3[B-]2(F)F)C=C1
photoluminescence quantum yield (in C1CCOC1): 0.746

Structure (SMILES): CC(C)CCC[C@@H](C)[C@H]1CC[C@H]2[C@@H]3CC=C4C[C@@H](OC(=O)Oc5cc(/C=C/C=C/c6ccc(N(C)C)cc6)ccc5[N+](=O)[O-])CC[C@]4(C)[C@H]3CC[C@]12C
photoluminescence quantum yield (in C1CCCCC1): 0.29
photoluminescence quantum yield (in C1COCCO1): 0.08
photoluminescence quantum yield (in CCCCCCC): 0.28
photoluminescence quantum yield (in Cc1ccccc1): 0.17
